Reference: US11065252B2, “Treatment of rosacea with P38 and Erk kinase pathway inhibitors” (Albany Medical College, priority 2016, dated 2021)

Columns and labels:
[1] = tested on: subjects with acute coronary syndrome; conditions: phase III trial; cited from earlier work
[2] = tested on: Balb/c mice; test: Skin safety of daily topical cream on shaved backs of mice; type: in vivo
Text: Wild type Balb/c mice of 6-8 weeks of age were used to determine the safety and efficacy of application of a cream containing an inhibitor of the Erk pathway. Animal studies were approved by the Albany Medical Center Institutional Review Board. The fur of the back was removed with an application of Nair. Three days later, three marks were made on the backs of the mice and treated with a cream containing trametinib (an Erk pathway inhibitor), vehicle cream (without an active ingredient) or nothing daily for five days. One hour after the last application, the spots were treated with one cream or the other, and cutaneous inflammation was induced via exposure to 1-Fluoro-2,4-dinitrobenzene (hereafter DNFB). Six hours later mice were euthanized and the skin spots were processed for histological analysis.
More specifically, to determine whether a cream containing an inhibitor of the Erk activation pathway would effectively penetrate the skin and protect it from an external injury, four mice were treated once a day for five consecutive days on a shaved back with a cream containing 0.1 mg/ml trametinib and cream without drug as described in FIG. 4. Regions labeled ‘U’ were left untreated and represent the baseline normal skin. […] Regions labeled ‘T’ were treated with a cream containing trametinib as the active ingredient. […]

SMILES	Efficacy in reducing the incidence of cardiovascular events [1]	Safety profile in trial [1]	Skin changes after application of cream (photographs) ([2]; cream containing 0.1 mg/ml trametinib, topical, once a day for five days, shaved back)	Acute adverse effect in the skin ([2]; topical cream containing trametinib, five days)
Cc1c(F)cc(C(=O)NC2CC2)cc1-c1ccc(C(=O)NCC(C)(C)C)cn1 [Losmapimod]	did not demonstrate efficacy	good safety profile	–	–
CC(=O)Nc1cccc(-n2c(=O)n(C3CC3)c(=O)c3c(Nc4ccc(I)cc4F)n(C)c(=O)c(C)c32)c1 [trametinib, Trametinib]	–	–	No skin changes	does not elicit an acute adverse effect
